Measurements from patent US11014908B2, “Chemical compounds” (Pfizer Inc., priority 2018, dated 2021).

How the values were obtained:
human HbA = human HbA (Homo sapiens, UniProt P68871+P69905); assay: Co-crystallization with HbA; settings: 1.85 Å co-crystal structure with human HbA
From the text: Co-Crystallization with HbA
The binding of the compound of Example 58 to hemoglobin (Hb) was further investigated through co-crystallization experiments. Given the structural and functional similarity of HbS and HbA, and the large quantity of material needed for structural studies, purified HbA was utilized for these studies.
HbA with Example 58 was crystallized according to published protocols (Lee et al. “Crowning proteins: modulating the protein surface properties using crown ethers”, Angew Chem Int Ed Engl 2014; 53(48):13054-13058). Briefly, 20 mg/mL HbA in 20 mM Tris-HCl (pH 8.0) was mixed with equal volume of 50 mM 18-crown-6 solution and incubated at 20° C. for 20 minutes. Example 58 was then added to a final concentration of 1.5 mM and further incubated for an additional 1 hr. Crystallization was performed at 20° C. using hanging drop vapor diffusion method by mixing equal volumes of protein and reservoir solution containing 0.1 M Tris-HCl (pH 8.0), 0.2 M Li2SO4 and 30-32% PEG 3350. Crystals grew to their maximum size in ˜2 days and the crystals were further soaked overnight with 10 mM Example 58. Diffraction data were collected at the Argonne National Laboratory Advanced Photon Source, beamline 17-ID. The data was processed using autoPROC (Global Phasing Limited) and the structure was solved using 3WHM (PDB code) as a starting model. […]

Hb in mouse whole blood = assay: Whole blood oxygen affinity assay (Hemox analyzer), mouse blood; settings: 1 mM compound, 1 hour at 25 C, relative to DMSO
From the text: Whole Blood Oxygen Affinity Assay
Oxygen affinity is a marker of the ability of Hb to bind and release oxygen in solution. It can be determined in whole blood by measuring the percentage of oxygenated and deoxygenated Hb present at a given oxygen concentration. Oxygen affinity is expressed as the p50, the partial pressure of oxygen at which 50% of the Hb in solution has oxygen bound, or the p20, the partial pressure of oxygen at which 20% of the Hb in solution has oxygen bound.
To determine the effects of compounds of the invention on oxygen affinity the p50 and p20 were measured in human, dog, and mouse whole blood using a Hemeox Analyzer (TCS Scientific). The blood was spiked with a compound of the invention to a concentration of 1 mM and incubated for 1 hour at 25 C with constant rotation. A concentration of 1 mM of compound was selected to approximate 20% hemoglobin occupancy in whole blood. Controls with the same concentration of DMSO, but no compound were incubated in the same way at the same time. Following incubation, samples were immediately assayed for oxygen affinity using the Hemox analyzer. […] Once samples had reached an pO2 of >150 torr, the measurement was initiated by switching to N2, and the percent oxyhemoglobin as a function of partial pressure was recorded. The p20 and p50 of each sample were recorded from the instrument readout. […]

SMILES: C[C@H](Oc1cc2cc(F)ccc2nc1N)c1nc(O)ccc1-n1cccn1 [Example 58, 6-{(1S)-1-[(2-amino-6-fluoroquinolin-3-yl)oxy]ethyl}-5-(1H-pyrazol-1-yl)pyridin-2-ol]
- Hb conformation bound in co-crystal structure (human HbA): binds to the oxygenated (R state) conformation of Hb
- Reduction in p20 (%) Mouse (Hb in mouse whole blood): 11 ± 2%
- Reduction in p50 (%) Mouse (Hb in mouse whole blood): 5 ± 3%
